Reference: EP1992637A1, “1-Aminocyclopentane-1,3,4- tricarboxylic acids derivatives” (priority 2007, dated 2008)

Key:
[1] = tested on: haldol-induced catalepsy; assay: Haldol-induced catalepsy model of Parkinson's disease, bar test; assay type: in vivo; conditions: mice
Procedure: The compounds of the invention were evaluated in a model of Parkinson's disease, the haldol-induced catalepsy model in mice. Catalepsy was assessed using the bar test in mice submitted to acute administration of the dopamine D2 receptor antagonist haloperidol (1mg/kg, intraperitoneally or ip). Mice (male RjOrl: Swiss mice, weighing 30 - 35 g at the beginning of the experiment) placed in group of 5 in Plexiglas cages, were injected with haloperidol (1 mg/kg ip). […] The catalepsy response of one mouse was measured as the time the animal maintained an imposed posture with both forelimbs placed on a horizontal 0.9cm-diameter wire bar suspended 4cm above a platform. The end point of catalepsy was considered to occur when both forelimbs were removed from the bar, the mouse climbed onto the bar or if the animal moved its head in an exploratory manner. A cutoff time of 180 seconds was applied. The degree of catalepsy was scored 60 minutes after haloperidol administration and continued at 30 or 60 minutes intervals for a total of 240-300 minutes. Between measurements, the animals were returned to their home cages. This procedure was adapted from the literature: (e.g. Pires et al., Braz J Med and Biol Res 38, 1867-1872, 2005; Shiozaki et al., Psychopharmacology 147, 90-95, 1999). Parent compound and corresponding vehicle, given either intraperitoneally (ip) or orally (po), were administered 30 minutes after haldol administration. Prodrugs and corresponding vehicle were injected 4h before haldol administration. Prodrug dose is expressed in equivalent of parent compound.
Data analysis: the figures 2 and 3 show the mean time of latency spent on the bar for each group of animals. At each time-point, the anti-cataleptic effects of parent compound and prodrugs were compared to vehicle-treated groups using 1-factor ANOVA test followed by the Dunnett's test. Datapoints marked with "*" in figures 3 or 4 indicates p<0.05; "**" indicates p<0.01.

[2] = In vivo pharmacokinetic evaluation (ACPT-I in plasma, LC/MS/MS); conditions: rat, po, 30 mg/kg
[3] = 100mg/kg orally (dose in equivalent of parent compound), given 4h before haldol (1 mg/kg ip)

bioavailability [2] | Structure (SMILES) | anticataleptic activity ([1]; 30mg/kg ip, given 30 minutes after haldol (1 mg/kg ip)) | anticataleptic activity ([1]; 100mg/kg oral administration, given 30 minutes after haldol (1 mg/kg ip)) | anticataleptic activity [1, 3]
1.14% | N[C@@]1(C(=O)O)C[C@H](C(=O)O)[C@H](C(=O)O)C1 [ACPT-I, (1S, 3R, 4S) -1-aminocyclopentane-1,3,4-tricarboxylic acid] | significantly reduced catalepsy | no anticataleptic activity | 
 | CC(C)C[C@H](N)C(=O)N[C@@]1(C(=O)O)C[C@H](C(=O)O)[C@H](C(=O)O)C1 [Example 1, (1S, 3R, 4S)-1-{[(2'S)-2'-amino-4'-methylpentanoyl]amino}cyclopentane-1,3,4-tricarboxylic acid] |  |  | significantly reduced the haldol-induced cataleptic response
 | C[C@H](N)C(=O)N[C@@]1(C(=O)O)C[C@H](C(=O)O)[C@H](C(=O)O)C1 [Example 3, (1S, 3R, 4S)-1-{[(2'S)-'2-aminopropanoyl]amino}cyclopentane-1,3,4-tricarboxylic acid] |  |  | significantly reduced the haldol-induced cataleptic response
